Data: patent US7094760B2, “Peptides for treatment of inflammation and shock” (Salpep Biotechnology, Inc., priority 1996, dated 2006)
Ends that are not written are not given here.

What was measured:
[1] = tested on: jejunal segments from ovalbumin-sensitized rats; assay: antigen-induced jejunal segment contraction, URE/OA ratio, Example 7; set-up: species or system rat; settings: 10 μg peptide; for URE/OA: 100 ng OA, 20 μg urecholine
Protocol: Animals and Tissue Preparation: Male Sprague-Dawley rats were sensitized to egg albumin (ovalbumin, OA) with 50 ng of Pertussis bordetella toxin as an adjuvant. Four to six weeks after sensitization, the rats were anaethetised with sodium pentobarbital and the jejunum was removed. Two cm sections of the jejunum were mounted in tissue baths under 0.75 g of isometric tension, and the tissues were allowed to equilibrate for 20 min prior to beginning the experiment.
10 μg of SGP-T or one of its analogues or fragments was added to a bath, while control tissues received the saline vehicle. Following a 10 min incubation, 100 ng of OA prepared in 0.9% saline was added. After the tissue had reached a maximal contractile response, the tissues were washed extensively to remove OA and peptide and, after the tissues had established baseline tension, 20 μg of urecholine (URE; a cholinergic-muscarinic receptor agonist) was added to determine the maximal contractile response of the tissue. The tissues were then removed from the bath, cleared of all underlying mucosa and the weight of the remaining muscle was determined.
Data Analysis: The tension (measured in grams) per gram tissue weight generated by each tissue in response to OA and URE was calculated. To normalize for differences in the ability of each tissue segment to contract in response to the muscle stimulants, the contractile response to […]. Thus, a measure of the antigen-induced contraction was expressed as the URE/OA ratio.
The data was analyzed using the one-way analysis of variance (ANOVA) and differences between groups was determined using the Student t-test for unpaired samples. The results are shown in FIGS. 7 and 8 and Tables 3 and 4.

[2] = tested on: isolated jejunal segments from egg albumin-sensitised rats; assay: antigen-induced contraction of isolated jejunal segments, Examples 3 and 6; set-up: species or system rat; key to Biological Activity = inhibition of antigen-induced jejunal contraction by test peptide: +++ = highest inhibition (~60%); ++ = moderate inhibition (~40%); + = lowest inhibition (~20%); − = no inhibition
Protocol: SGP-T, at doses as low as 6.8×10^−7M, reduced antigen induced contractions of these isolated intestinal tissues by 60% (data not shown).
Analogues and fragments of SGP-T were tested for their ability to inhibit antigen (egg albumin)-induced intestinal contractions, using isolated jejunal segments from egg albumin-sensitised rats, as described in Example 3.

[3] = tested on: LPS (Salmonella typhosa)-induced hypotension in sialadenectomized rats; assay: endotoxin (LPS)-induced hypotension, sialadenectomized rats; format: in vivo, rat
Protocol: (§1) The animal model of endotoxic shock used involves intravenous injection of endotoxin (3.5 mg/kg of lipopolysaccharide (LPS) from Salmonella typhosa) into pentobarbital-anaesthetized Sprague-Dawley rats, to produce a fall in mean arterial blood pressure within 3 to 5 minutes. The endotoxin was injected slowly over 1 min. via the jugular vein, and mean arterial blood pressure in mm mercury (MABP) was monitored continuously for 60 min, with the average blood pressure being calculated at 15, 30, 45 and 60 min. Studies were performed on unoperated rats and rats with their submandibular glands removed (sialadenectomized).
(§2) The results shown in Table 1 are the averages of three different experiments using the protocol defined above. The data shown represent the average decrease in MABP (dec MABP) and the % Decrease in MABP over the 60 minutes following LPS administration. SGP-S (100μg/kg) and SGP-T (100 μg/kg) were administered 90 min. before LPS. […] Neither SGP-T nor SGP-S, when given prior to the LPS challenge, had appreciable effects on MABP.
(§3) The dose-response relationship of the inhibitory effect of SGP-T and SGP-S on endotoxin-induced hypotension was also examined and the results are shown in FIG. 1.

[4] = tested on: LPS (Salmonella typhosa)-induced hypotension in unoperated rats; assay: endotoxin (LPS)-induced hypotension, unoperated rats; format: in vivo, rat
Protocol: as §1, §2
Overall, SGP-T reduced by 60% the decrease and the percent decrease in MABP induced by endotoxin, relative to pre-LPS values. SGP-S, on the other hand, had no effect on the shock induced by endotoxin in unoperated rats.
as §3

[5] = peptide 100 μg/kg 90 min before LPS 3.5 mg/kg iv

TDIFEGG-NH2 [T5, SGP-T with amidated terminal glycine]
anti-anaphylactic activity in jejunal assay, in words [1]: abolished anti-anaphylactic activity | URE/OA ([1]; Table 3, saline 4.0 ± 0.4): 4.3 ± 0.7 | Biological Activity = inhibition of antigen-induced jejunal contraction by test peptide [2]: −

FE-Proline
anti-anaphylactic activity in jejunal assay, in words [1]: loss of biological activity | URE/OA ([1]; Table 4, saline 5.7 ± 1.0): 6.2 ± 1.3

FE-Sarcosine
URE/OA ([1]; Table 4, saline 5.7 ± 1.0): 10.0 ± 1.6

ADIFEGG [T3, alanine analogue of SGP-T]
URE/OA ([1]; Table 3, saline 4.0 ± 0.4): 3.6 ± 0.9 | Biological Activity = inhibition of antigen-induced jejunal contraction by test peptide [2]: −

FE-Citrulline
anti-anaphylactic activity in jejunal assay, in words [1]: loss of biological activity | URE/OA ([1]; Table 4, saline 5.7 ± 1.0): 5.0 ± 1.1

FEG
Biological Activity = inhibition of antigen-induced jejunal contraction by test peptide [2]: ++ (++ = moderate inhibition (~40%))

TDIFE [T4]
anti-anaphylactic activity in jejunal assay, in words [1]: abolished anti-anaphylactic activity | URE/OA ([1]; Table 3, saline 4.0 ± 0.4): 1.7 ± 0.3 | Biological Activity = inhibition of antigen-induced jejunal contraction by test peptide [2]: −

TDIFAGG [T9, alanine analogue of SGP-T]
URE/OA ([1]; Table 3, saline 4.0 ± 0.4): 7.2 ± 1.1 | Biological Activity = inhibition of antigen-induced jejunal contraction by test peptide [2]: −

STDIFEGG [T2, analogue of SGP-T]
URE/OA ([1]; Table 3, saline 4.0 ± 0.4): 3.58 ± 1.07 | Biological Activity = inhibition of antigen-induced jejunal contraction by test peptide [2]: −

NH2-Ser-Gly-Glu-Gly-Val-Arg-COOH (H-SGEGVR-OH) [SGP-S, submandibular gland peptide S, SGEGVR]
effect on drop in MABP after LPS [3]: significantly reduced the drop in MABP | % Dec = percent decrease in MABP relative to MABPbef [3, 5]: −32.3 ± 3.9 % | MABPaft = average MABP for 60 mins after LPS injection [3, 5]: 81.6 ± 5.8 mm Hg | dec MABP = decrease in MABP after LPS relative to MABPbef [3, 5]: −37.6 ± 4.4 mm Hg | effect on drop in MABP / shock induced by endotoxin [4]: no effect | % Dec = percent decrease in MABP relative to MABPbef [4, 5]: −22.9 ± 1.3% | MABPaft = average MABP for 60 mins after LPS injection [4, 5]: 95.2 ± 4.3 mm Hg | dec MABP = decrease in MABP after LPS relative to MABPbef [4, 5]: −28.1 ± 1.8 mm Hg

TDIAEGG [T11, alanine analogue of SGP-T]
URE/OA ([1]; Table 3, saline 4.0 ± 0.4): 5.2 ± 1.2 | Biological Activity = inhibition of antigen-induced jejunal contraction by test peptide [2]: −

TDAFEGG [T10, alanine analogue of SGP-T]
anti-anaphylactic activity in jejunal assay, in words [1]: minimal effect on prevention of anaphylaxis | URE/OA ([1]; Table 3, saline 4.0 ± 0.4): 8.3 ± 1.9 | Biological Activity = inhibition of antigen-induced jejunal contraction by test peptide [2]: + (+ = lowest inhibition (~20%))

TAIFEGG [T7, alanine analogue of SGP-T]
anti-anaphylactic activity in jejunal assay, in words [1]: minimal effect on prevention of anaphylaxis | URE/OA ([1]; Table 3, saline 4.0 ± 0.4): 12.3 ± 2.2 | Biological Activity = inhibition of antigen-induced jejunal contraction by test peptide [2]: +++ (+++ = highest inhibition (~60%))

FEGGG [T6]
anti-anaphylactic activity in jejunal assay, in words [1]: no effect on activity | URE/OA ([1]; Table 3, saline 4.0 ± 0.4): 10.7 ± 2.0 | Biological Activity = inhibition of antigen-induced jejunal contraction by test peptide [2]: ++ (++ = moderate inhibition (~40%))
